Measured values from PubChem BioAssay (NCI).
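96-well plates; 48 h exposure; 5 concentrations. Endpoints by linear interpolation between flanking doses. Not reached: highest tested concentration assigned. GI50 marks 50% less growth. TGI denotes the concentration required for complete inhibition of growth.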

Assays:
Assay in all cases: NCI tumour cell line growth inhibition, 48 h
[1] = tested on: MDA-MB-435
[2] = tested on: NCI-H23 lung
[3] = tested on: SN12C renal
[4] = tested on: LOX IMVI melanoma
[5] = tested on: OVCAR-4 ovarian
[6] = tested on: SF-268 CNS
[7] = tested on: HOP-62 NSCLC
[8] = tested on: UACC-62 melanoma
[9] = tested on: HT29 colon
[10] = tested on: T-47D breast

| SMILES | GI50 [1] [µM] | TGI [1] [µM] | GI50 [2] [µM] | TGI [2] [µM] | GI50 [3] [µM] | TGI [3] [µM] | GI50 [4] [µM] | TGI [4] [µM] | GI50 [5] [µM] | TGI [5] [µM] | GI50 [6] [µM] | TGI [6] [µM] | GI50 [7] [µM] | TGI [7] [µM] | GI50 [8] [µM] | TGI [8] [µM] | GI50 [9] [µM] | TGI [9] [µM] | GI50 [10] [µM] | TGI [10] [µM] |
| --- | --- | --- | --- | --- | --- | --- | --- | --- | --- | --- | --- | --- | --- | --- | --- | --- | --- | --- | --- | --- |
| O=C(Oc1cccc(F)c1OC(=O)c1cccc(O)c1)c1cccc(O)c1 | 66.7 | > 100 | 26.9 | > 100 | 56.6 | > 100 | 13 | > 100 | 15.2 | > 100 | 11.2 | > 100 | 50.7 | > 100 | 40.8 | > 100 | 41.8 | > 100 | 23.1 | 79.1 |
| COc1ccc(C23C(=O)c4ccccc4N2O[C@H]2C(=O)N(c4ccccc4)C(=O)[C@H]23)cc1 (some centres not stated) | – | – | – | > 100 | – | > 100 | – | > 100 | – | > 100 | – | > 100 | – | > 100 | – | > 100 | – | > 100 | – | – |
| CCN1C(=O)N(CC)C2C1NN=c1s/c(=C\c3cccc(F)c3)c(=O)n12 (configuration not stated) | 0.0271 | 0.0833 | 0.522 | > 100 | 0.38 | > 100 | 0.11 | > 100 | 5.37 | > 100 | 2.61 | > 100 | 0.598 | > 100 | 0.0539 | > 100 | 0.0859 | > 100 | 17.4 | > 100 |
| C=CCNC(=O)N(CCCCC(NC(C)=O)C(=O)NCc1ccccc1)Cc1ccccc1 (configuration not stated) | – | – | – | > 100 | – | > 100 | – | > 100 | – | > 100 | – | > 100 | – | > 100 | – | > 100 | – | > 100 | – | – |
| COC(=O)CC1C[C@H](C#N)N(C(=O)c2ccccc2)C[C@@H]1CC[N+](=O)[O-] (some centres not stated) | – | – | – | > 100 | – | > 100 | – | > 100 | – | > 100 | – | > 100 | – | > 100 | – | > 100 | – | > 100 | – | – |
| C[C@]12C[C@H](CCCCCCNCCOC(=O)NCCCc3ccc(N(CCCl)CCCl)cc3)C3=C4CCC(=O)C=C4CCC3C1CC[C@@H]2O (some centres not stated) | 2.38 | 6.53 | 1.54 | 3.01 | 1.89 | 3.39 | 1.06 | 2.27 | – | – | 1.2 | 3.86 | 2.2 | 10.4 | – | – | – | – | 1.17 | 4.5 |
| CCOC(=O)/C(C=Nc1ccc(-c2nc3ccccc3[nH]2)cc1)=C(/C)O | 14.9 | 43.4 | 15 | 31 | 14.5 | > 50 | 9.13 | 16.5 | – | – | 11.7 | 34.5 | 19.7 | > 50 | 8.59 | 17.6 | – | – | 10.3 | 35.4 |
| CC[C@@H]1c2c(C#N)ncn2-c2cnc(Nc3ccc(C(=O)NC4CCN(C5CCN(CC6CC6)CC5)CC4)cc3OC)nc2N1C1CCCC1 | – | – | 0.0374 | 1.38 | 0.0916 | 1.91 | 0.0368 | 1.06 | 0.214 | 1.7 | 0.0642 | 1.77 | 0.0403 | 1.79 | 0.372 | 1.79 | 0.036 | 0.135 | 1.3 | 2.88 |
